The source of these data is PMC2765529 (Journal of medicinal chemistry, 2009).

Broadly, the IC50 is the concentration that gives 50% inhibition. Lower therefore signals higher potency. For orientation: Ki means the equilibrium dissociation constant of an inhibitor or competing ligand from its target. Low values mean higher affinity, high ones lower affinity.

A short description of data set [1]: Tissue biodistribution and regional brain uptake in rats. It counts as in vivo, male Sprague-Dawley rats. The settings on record: for Blood uptake: i.v., mean ± SD.
Another data set concerns the target T1, human VAChT (Homo sapiens, UniProt Q16572).
T1 sequence (Q16572 1-532): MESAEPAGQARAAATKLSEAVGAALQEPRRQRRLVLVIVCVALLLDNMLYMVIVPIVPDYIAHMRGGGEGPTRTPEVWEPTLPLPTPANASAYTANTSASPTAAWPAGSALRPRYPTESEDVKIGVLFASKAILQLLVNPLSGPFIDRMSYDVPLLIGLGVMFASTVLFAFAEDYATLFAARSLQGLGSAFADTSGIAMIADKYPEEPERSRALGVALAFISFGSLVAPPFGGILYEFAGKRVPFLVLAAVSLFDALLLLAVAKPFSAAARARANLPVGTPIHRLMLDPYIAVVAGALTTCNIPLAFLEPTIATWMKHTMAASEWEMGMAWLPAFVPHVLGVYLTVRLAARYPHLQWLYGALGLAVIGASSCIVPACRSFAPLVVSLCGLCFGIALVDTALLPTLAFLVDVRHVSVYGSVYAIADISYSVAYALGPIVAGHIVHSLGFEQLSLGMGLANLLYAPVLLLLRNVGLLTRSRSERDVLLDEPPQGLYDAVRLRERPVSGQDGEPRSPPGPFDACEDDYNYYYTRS
Nature of the data set: VAChT binding, competition against [^3H]vesamicol. The settings on record: for Ki: VAChT (Ki [nM]), [^3H]vesamicol competition, mean ± SEM.

Structures can show the parent of a compound that is named as a salt.

For `O=C(c1ccc([18F])cc1)C1CCN([C@@H]2Cc3ccccc3C[C@H]2O)CC1` (racemic) [(±)-[^18F]9e, (±)-trans-2-Hydroxy-3-(4-(4-[^18F]fluorobenzoyl)piperidino)tetralin], the Bone uptake in data set [1] (5 min p.i.) is reported as 0.307 ± 0.011 %ID/g; in data set [1] (5 min p.i., listed as racemic [^18F]9e), 0.31 %ID/g; in data set [1] (30 min p.i.), 0.445 ± 0.032 %ID/g; in data set [1] (1 h p.i.) it was 0.623 ± 0.080 %ID/g; in data set [1] (2 h p.i.) it was 0.739 ± 0.044 %ID/g. The Brain uptake in data set [1] (5 min p.i.) is given as 0.606 ± 0.100 %ID/g; in data set [1] (30 min p.i.) it was 0.153 ± 0.044 %ID/g; in data set [1] (1 h p.i.), 0.095 ± 0.012 %ID/g; in data set [1] (2 h p.i.), 0.059 ± 0.008 %ID/g. In addition, the Fat uptake in data set [1] (5 min p.i.) worked out at 0.088 ± 0.026 %ID/g; in data set [1] (30 min p.i.), 0.177 ± 0.039 %ID/g; in data set [1] (1 h p.i.), 0.196 ± 0.035 %ID/g; in data set [1] (2 h p.i.), 0.173 ± 0.042 %ID/g. In addition, the Heart uptake stood at 0.328 ± 0.014 %ID/g in data set [1] (5 min p.i.), 0.141 ± 0.005 %ID/g in data set [1] (30 min p.i.), 0.094 ± 0.008 %ID/g in data set [1] (1 h p.i.) and 0.056 ± 0.007 %ID/g in data set [1] (2 h p.i.). In addition, the values for the Liver uptake in data set [1] (5 min p.i.), in data set [1] (30 min p.i.) and in data set [1] (2 h p.i.) were 1.939 ± 0.382 %ID/g, 1.504 ± 0.271 %ID/g and 1.188 ± 0.158 %ID/g, respectively. The Muscle uptake was determined as 0.079 ± 0.015 %ID/g in data set [1] (5 min p.i.), 0.071 ± 0.006 %ID/g in data set [1] (30 min p.i.), 0.076 ± 0.012 %ID/g in data set [1] (1 h p.i.) and 0.047 ± 0.006 %ID/g in data set [1] (2 h p.i.). For the same compound, the Blood uptake is on record as 0.122 ± 0.023 %ID/g in data set [1] (5 min p.i., n=4 rats); 0.071 ± 0.009 %ID/g in data set [1] (30 min p.i., n=4 rats); 0.043 ± 0.003 %ID/g in data set [1] (1 h p.i., n=4 rats); 0.027 ± 0.004 %ID/g in data set [1] (2 h p.i., n=4 rats). Moreover, the Lung uptake was 0.553 ± 0.056 %ID/g in data set [1] (30 min p.i.), 0.346 ± 0.045 %ID/g in data set [1] (1 h p.i.) and 0.223 ± 0.014 %ID/g in data set [1] (2 h p.i.). Besides, in data set [1] (2 h p.i.), the Kidney uptake is listed as 0.853 ± 0.171 %ID/g.
In turn, `O=C(c1ccccc1)C1CCN([C@@H]2Cc3ccccc3C[C@H]2O)CC1` (racemic) [Compound 9a, (±)-trans-2-Hydroxy-3-(4-benzoylpiperidino)tetralin hydrochloride] yielded an IC50 on human VAChT of 4.3 ± 1 nM.
On human VAChT, `O=C(c1ccc(Br)cc1)C1CCN([C@@H]2Cc3ccccc3C[C@H]2O)CC1` (racemic) [Compound 9b, (±)-trans-2-Hydroxy-3-(4-(4-bromobenzoyl)piperidino)tetralin hydrochloride] displayed an IC50 of 0.25 ± 0.02 nM. This IC50 is about 17-fold lower than that of the compound before.
`Nc1ccc(C(=O)C2CCN([C@@H]3Cc4ccccc4C[C@H]3O)CC2)cc1` (racemic) [Compound 9c, (±)-trans-2-Hydroxy-3-(4-(4-aminobenzoyl)piperidino)tetralin]: the IC50 on human VAChT is 1.68 ± 0.04 nM.
Turning to `O=C(c1ccc([N+](=O)[O-])cc1)C1CCN([C@@H]2Cc3ccccc3C[C@H]2O)CC1` (racemic) [Compound 9d, (±)-trans-2-Hydroxy-3-(4-(4-nitrobenzoyl)piperidino)tetralin], the IC50 on human VAChT was determined as 0.48 ± 0.03 nM. Against the preceding compound, the IC50 is about 3.5-fold lower.
On human VAChT, `O=C(c1ccc(F)cc1)C1CCN([C@@H]2Cc3ccccc3C[C@H]2O)CC1` (relative stereo) [(±)9e, (±)-trans-2-Hydroxy-3-(4-(4-fluorobenzoyl)piperidino)tetralin] displayed an IC50 of 2.7 ± 0.4 nM and a Ki of 2.7 ± 0.4 nM.
On to `O=C(c1ccc(F)cc1)C1CCN([C@@H]2Cc3ccccc3C[C@H]2O)CC1` (single isomer, unassigned) [(+)-9e], for which the Ki at human VAChT turned out to be 108 ± 15 nM.
In data set [1] (5 min p.i.), “(+)-trans-2-Hydroxy-3-(4-(4-[^18F]fluorobenzoyl)piperidino)tetralin [(+)-[^18F]9e]” came in with a Bone uptake of 0.187 ± 0.015 %ID/g, a Brain uptake of 0.350 ± 0.040 %ID/g, a Fat uptake of 0.052 ± 0.017 %ID/g and a Heart uptake of 0.194 ± 0.006 %ID/g. In data set [1] (5 min p.i.), this compound returned a Kidney uptake of 0.791 ± 0.123 %ID/g, a Liver uptake of 1.849 ± 0.566 %ID/g, a Lung uptake of 0.904 ± 0.161 %ID/g and a Muscle uptake of 0.047 ± 0.010 %ID/g. In data set [1] (5 min p.i.), the “Ratio Striatum: Cerebellum” value amounted to 1.15 ± 0.04, the “Ratio Striatum: Cortex” value came out at 0.92 ± 0.02, the “Ratio Striatum: Hippocampus” value turned out to be 0.99 ± 0.04 and the “Ratio Striatum: Total Brain” value is 1.02 ± 0.03. Further, the Blood uptake in data set [1] (5 min p.i., n=4 rats) amounted to 0.136 ± 0.020 %ID/g. The “Ratio Striatum: Blood” value in data set [1] (5 min p.i., %ID/g striatum divided by %ID/g non-striatal tissue, n=4 rats) was 2.67 ± 0.57. In data set [1] (30 min p.i.), this compound displayed a Bone uptake of 0.277 ± 0.080 %ID/g, a Brain uptake of 0.071 ± 0.012 %ID/g, a Fat uptake of 0.108 ± 0.053 %ID/g and a Heart uptake of 0.094 ± 0.013 %ID/g. In data set [1] (30 min p.i.), this compound had a Kidney uptake of 0.416 ± 0.048 %ID/g, a Liver uptake of 1.239 ± 0.271 %ID/g, a Lung uptake of 0.332 ± 0.073 %ID/g and a Muscle uptake of 0.051 ± 0.010 %ID/g. Moreover, in data set [1] (30 min p.i.), the “Ratio Striatum: Blood” value stood at 0.95 ± 0.18, the “Ratio Striatum: Cerebellum” value was 1.3 ± 0.07, the “Ratio Striatum: Cortex” value was 1.08 ± 0.09 and the “Ratio Striatum: Hippocampus” value is 0.93 ± 0.03. Further, the “Ratio Striatum: Total Brain” value in data set [1] (30 min p.i.) came to 1.13 ± 0.04. In data set [1] (30 min p.i., n=4 rats), the Blood uptake was 0.087 ± 0.016 %ID/g. In data set [1] (1 h p.i.), this compound gave a Bone uptake of 0.399 ± 0.078 %ID/g, a Brain uptake of 0.041 ± 0.002 %ID/g, a Fat uptake of 0.154 ± 0.065 %ID/g and a Heart uptake of 0.051 ± 0.005 %ID/g. In data set [1] (1 h p.i.), this compound gave a Kidney uptake of 0.291 ± 0.032 %ID/g, a Liver uptake of 0.814 ± 0.120 %ID/g, a Lung uptake of 0.188 ± 0.035 %ID/g and a Muscle uptake of 0.034 ± 0.008 %ID/g. In data set [1] (1 h p.i.), the “Ratio Striatum: Blood” value was found to be 0.9 ± 0.23, the “Ratio Striatum: Cerebellum” value was determined as 1.17 ± 0.12, the “Ratio Striatum: Cortex” value was determined as 0.95 ± 0.09 and the “Ratio Striatum: Hippocampus” value turned out to be 0.98 ± 0.14. Also, the “Ratio Striatum: Total Brain” value in data set [1] (1 h p.i.) was determined as 1.02 ± 0.09. In addition, the Blood uptake in data set [1] (1 h p.i., n=4 rats) is 0.048 ± 0.007 %ID/g. In data set [1] (2 h p.i.), this compound registered a Bone uptake of 0.532 ± 0.096 %ID/g, a Brain uptake of 0.022 ± 0.004 %ID/g, a Fat uptake of 0.150 ± 0.062 %ID/g and a Heart uptake of 0.031 ± 0.006 %ID/g. For the same compound, in data set [1] (2 h p.i.), the Kidney uptake was 0.194 ± 0.027 %ID/g, the Liver uptake was found to be 0.692 ± 0.081 %ID/g, the Lung uptake is listed as 0.112 ± 0.023 %ID/g and the Muscle uptake came out at 0.022 ± 0.005 %ID/g. In data set [1] (2 h p.i.), the “Ratio Striatum: Blood” value came out at 0.87 ± 0.11, the “Ratio Striatum: Cerebellum” value came to 1.14 ± 0.09, the “Ratio Striatum: Cortex” value is 0.91 ± 0.15 and the “Ratio Striatum: Hippocampus” value is given as 0.99 ± 0.08. The “Ratio Striatum: Total Brain” value in data set [1] (2 h p.i.) came to 1.04 ± 0.06. Also, the Blood uptake in data set [1] (2 h p.i., n=4 rats) stood at 0.027 ± 0.002 %ID/g.
